In PubChem BioAssay (NCI):
“And” between values parts separate entries of the source, which are not always exact repeats. Equal entries are not always repeated.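 Step 1: Grow cells in 96-well plates. Step 2: Expose to compound for 48 hours at 5 concentrations. Step 3: Interpolate endpoints linearly; if unreached, use highest concentration. GI50 = concentration required for 50% inhibition of growth. Definition used: TGI = concentration required for complete inhibition of growth.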

Tested on: MDA-MB-468 breast
Assay: NCI-60 cell line screen, 48 h

| SMILES | GI50 | TGI |
| --- | --- | --- |
| CCC(c1ccc(OC)cc1)C(CC)c1ccc(O)c(CN2CCN(C)CC2)c1 (stereo not given) | 2500 nM | 9770 nM |
| Brc1ccc2[nH]cc(-c3nc(-c4c[nH]c5ncccc45)cs3)c2c1 | 2660 nM | 10900 nM |
| CCN1C(=O)N(CC)C2SC(N/N=C/c3ccccc3)=NC21 (stereo not given) | 293 nM |  |
| CN(Cc1cccc(F)c1)c1ccc(CO)c(Cl)c1 | 45.5 nM | 169 nM |
| O=[N+]([O-])c1ccc(Oc2nc(Nc3ccc(O[C@H]4CO[C@H]5[C@@H]4OC[C@@H]5O)c(Cl)c3)ncc2F)c(Cl)c1 | 1470 nM | 4660 nM |
| COc1ccccc1C1=C(Nc2ccccc2)C(=O)NC1=O | > 10300 nM | > 25000 nM |
| Cc1cc2cc3ccc(N(C)C)cc3nc2cc1N | 229 nM | 1260 nM |
| COc1ccc(C(c2ccc(OCCN(C)C)cc2)c2cc3ccccc3c3ccccc23)cc1 (stereo not given) | 1580 nM | 3150 nM |
| Oc1ccc(-c2nc3ccc4[nH]ncc4c3c3c2CCCC3)c(F)c1 | 4060 nM | 20300 nM |
| CC1=CC(=O)C(C(C)C)=CC1=Nc1cc(Br)c(O)c(Br)c1 | 3700 nM | 15500 nM |
| O=C(CN1CCN(c2cc3c(cc2F)c(=O)c(C(=O)O)cn3C2CC2)CC1)Nc1nc(-c2ccc(Cl)cc2)cs1 | 3430 nM | 30700 nM |
| COc1ccc(-c2ccc(-c3ccc(C(=N)N)nc3)s2)cc1Cl | 1740 nM | 3320 nM |
| CCOc1cc(Br)c(C(C)NC(=O)c2cccc(OC)c2)cc1OCC (stereo not given) | 3460 nM | 54700 nM |
| Nc1nc(N)c(C=Nc2ccc(Br)cc2)c(Nc2ccc(Br)cc2)n1 | 11000 nM | 23300 nM |
| COc1cc2c(cc1OC)C(Sc1ccc(SC)cc1)c1c(nc(N)c(C#N)c1N)O2 (stereo not given) | 1030 nM | 2620 nM |
| CC1=C(CN(O)C(N)=O)C2=C(C)C3(CC3)[C@](C)(O)C(=O)C2=C1 | 184 nM | 497 nM |
| CC1=C(/C=C/C(C)=C/C=C/C(C)=C/C=N/NC(=S)NC(=S)N/N=C/C=C(C)/C=C/C=C(C)/C=C/C2=C(C)CCCC2(C)C)C(C)(C)CCC1 | 3250 nM and 2840 nM | 10500 nM and 10200 nM |
| COc1cccc(-c2nn(-c3ccccc3)cc2-c2ccnc(NCCNC(=O)Nc3cccc(C(F)(F)F)c3)c2)c1 | 1700 nM | 3430 nM |
| COc1cc(NS(C)(=O)=O)ccc1Nc1c2ccccc2nc2ccccc12 | 469 nM [middle of 4 runs] |  |
| COc1cccc(/C=N/NC(=S)NC2CC3CCC2C3)c1O (stereo not given) | 11400 nM | > 100000 nM |
| COc1ccc(/C=c2\sc3n(c2=O)C2C(NN=3)N(C)C(=O)N2C)cc1 (stereo not given) | 231 nM | 783 nM |

| SMILES | GI50 | TGI |
| --- | --- | --- |
| Cn1nc(-c2ccc(Cl)cc2)nc2c(=O)n(C)c(=O)nc1-2 | 1180 nM | 3350 nM |
| Cn1ccnc1C(=O)/C=C/c1ccc(CNC(=O)c2ccc(Cl)cc2)cc1 | 2050 nM | 4750 nM |
| O=C(O)c1cn(C2CC2)c2cc(N3CCN(C(=O)Nc4nc(-c5ccccc5)cs4)CC3)c(F)cc2c1=O | 563 nM | 6520 nM |
| FC(F)(F)c1ccc(-c2cnc(-n3cc(COCCN4CCCCC4)nn3)nc2NC2CCCCCC2)cc1 | 3540 nM | 7370 nM |
| C=C1C(=O)O[C@H]2[C@H]1CC/C(COC(=O)CCSCCC(=O)OC/C1=C/CC[C@@]3(C)O[C@H]3[C@H]3OC(=O)C(=C)[C@@H]3CC1)=C\CC[C@@]1(C)O[C@@H]21 | 358 nM | 1500 nM |
| CCN1C(=O)CCCc2c1ccc(Nc1ncc(Cl)c(NC3[C@@H](C(N)=O)[C@@H]4C=C[C@H]3C4)n1)c2OC (stereo not given in full) | 1130 nM | 4800 nM |
| Cc1cc(Nc2nc(-c3cccnc3)nc3ccccc23)n[nH]1 | 1780 nM | 21400 nM |
| Cc1ccc(C(NC(=O)c2ccccc2)c2ccc3cccnc3c2O)cc1 (stereo not given) | 219 nM | 788 nM |
| N#Cc1c(Br)n(C2OC(CO)C(O)C2O)c2ncnc(N)c12 (stereo not given) | 2010 nM | 6120 nM |
| CCN(Cc1ccc(F)cc1)c1ccc(CO)c(C)c1 | 167 nM | 591 nM |
| CCCCCCNC(=O)Oc1ccc(/C(=C(/C)Cc2ccc(OC)cc2)c2ccc(OCCCN(C)C)cc2)cc1 | 16700 nM | 32600 nM |
| NC(=S)n1c(=O)n(-c2cccc(C(F)(F)F)c2)c(=O)c2cc(-c3ccc(F)cc3F)ccc21 | 2010 nM | 5800 nM |
| C=C(C)C(=O)O[C@H]1C[C@@]2(C)OC(=CC2=O)/C(CO)=C\[C@H]2OC(=O)C(=C)[C@H]12 | 41.6 nM | 127 nM |
| CC(=O)N1N=C(c2ccc(Nc3ccnc4cc(Cl)ccc34)cc2)CC1c1ccc(Cl)cc1 (stereo not given) | 2410 nM | > 100000 nM |
| Cc1ccc(/C=C2\CN(C(=O)C(Cl)Cl)C/C(=C\c3ccc(C)cc3)C2=O)cc1 | 195 nM | 427 nM |
| COc1cccc(-c2ccc3c(c2)C2CCN(Cc4ccccc4)C3C2)c1 (stereo not given) | 2890 nM | 16100 nM |
| COC1=C(C)C(=O)c2c(c(CCCl)c3n2CCC3O)C1=O (stereo not given) | 11100 nM | 34500 nM |
| COc1ccc2c(C3(c4cn(C)c5cc(OC)ccc45)C(=O)Nc4ccc(Cl)cc43)cn(C)c2c1 | 2540 nM | 9080 nM |
| O=C1c2c(c3c4cc(O)ccc4oc3c3[nH]c4ccccc4c23)C(=O)N1O | 478 nM | 1550 nM |
| CC(C)N1CCN(Cc2ccc3c(NNC(=O)c4ccccc4)nc4cc(F)ccc4n23)CC1 | 260 nM | 1400 nM |
